Data reported in ChEMBL document CHEMBL5465560, “Selectivity Literature for EUbOPEN Chemogenomic Library” (2024).

Tests used:
[1] = molecular target: Transcription initiation factor TFIID subunit 1 (Homo sapiens) (UniProt P21675); assay: Selectivity interaction (Human bromodomain panel (DSF assay)) EUB0000233b TAF1
[2] = molecular target: Fibroblast growth factor receptor 1 (Homo sapiens, UniProt P11362); assay: Selectivity interaction (KinomeScan (DiscoverX)) EUB0001049a FGFR1; settings: at 1 µM
[3] = molecular target: Tyrosine-protein kinase Fes/Fps (Homo sapiens) (UniProt P07332); assay: Selectivity interaction (Kinase panel (DSF assay)) EUB0001558a FES
[4] = molecular target: Serine/threonine-protein kinase PAK 4 (Homo sapiens, UniProt O96013); assay: Selectivity interaction (KinomeScan (DiscoverX)) EUB0000655a PAK4; settings: at 10 µM
[5] = molecular target: Ephrin type-A receptor 7 (Homo sapiens) (UniProt Q15375); assay: Selectivity interaction (KinomeScan (DiscoverX)) EUB0001079a EPHA7; settings: at 1 µM
[6] = molecular target: T1, Serine/threonine-protein kinase LATS1 (Homo sapiens) (UniProt O95835); assay: Selectivity interaction (Kinase panel (KiNativ target engagement assay in Jurkat cells)) EUB0001635a LATS1; format: cell-based; settings: at 1 µM
T1 sequence (whole entry): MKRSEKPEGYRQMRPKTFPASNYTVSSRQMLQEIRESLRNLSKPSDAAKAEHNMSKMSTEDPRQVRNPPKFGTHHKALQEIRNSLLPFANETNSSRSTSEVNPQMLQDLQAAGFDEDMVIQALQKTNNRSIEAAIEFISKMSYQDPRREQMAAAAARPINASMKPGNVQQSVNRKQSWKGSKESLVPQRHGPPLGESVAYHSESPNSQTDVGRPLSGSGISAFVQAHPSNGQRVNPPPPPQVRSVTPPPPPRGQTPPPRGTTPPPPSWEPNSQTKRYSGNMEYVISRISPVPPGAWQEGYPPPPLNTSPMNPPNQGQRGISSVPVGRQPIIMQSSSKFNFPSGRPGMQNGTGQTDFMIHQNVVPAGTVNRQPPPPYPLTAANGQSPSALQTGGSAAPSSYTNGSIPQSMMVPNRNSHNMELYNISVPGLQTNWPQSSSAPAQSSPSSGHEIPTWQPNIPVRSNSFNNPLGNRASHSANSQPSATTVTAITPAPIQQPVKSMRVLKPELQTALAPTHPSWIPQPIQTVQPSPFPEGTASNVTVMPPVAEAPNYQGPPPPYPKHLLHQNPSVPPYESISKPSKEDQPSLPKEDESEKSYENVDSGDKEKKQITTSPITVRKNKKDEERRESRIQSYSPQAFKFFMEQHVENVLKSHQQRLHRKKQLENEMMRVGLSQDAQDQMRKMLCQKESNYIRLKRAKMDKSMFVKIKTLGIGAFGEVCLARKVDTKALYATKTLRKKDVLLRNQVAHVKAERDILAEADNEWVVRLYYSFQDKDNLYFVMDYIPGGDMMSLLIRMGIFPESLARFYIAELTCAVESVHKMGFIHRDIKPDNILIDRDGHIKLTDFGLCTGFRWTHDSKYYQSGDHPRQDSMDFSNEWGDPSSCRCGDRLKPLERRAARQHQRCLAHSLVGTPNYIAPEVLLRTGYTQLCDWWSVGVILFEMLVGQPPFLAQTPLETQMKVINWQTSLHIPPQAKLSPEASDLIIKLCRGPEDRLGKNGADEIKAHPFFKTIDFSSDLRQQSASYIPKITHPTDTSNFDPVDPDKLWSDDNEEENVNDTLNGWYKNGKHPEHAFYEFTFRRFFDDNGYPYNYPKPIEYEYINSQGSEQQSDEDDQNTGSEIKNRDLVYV

[7] = molecular target: Calcium/calmodulin-dependent protein kinase type 1D (Homo sapiens) (UniProt Q8IU85); assay: Selectivity interaction (KinomeScan (DiscoverX)) EUB0000229b CAMK1D; settings: at 10 µM
[8] = molecular target: Calcium/calmodulin-dependent protein kinase type 1G (Homo sapiens) (UniProt Q96NX5); assay: Selectivity interaction (KinomeScan (DiscoverX)) EUB0000092b CAMK1G; settings: at 10 µM
[9] = molecular target: T2, Serine/threonine-protein kinase Nek5 (Homo sapiens) (UniProt Q6P3R8); settings: at 10 µM
T2 sequence (whole entry): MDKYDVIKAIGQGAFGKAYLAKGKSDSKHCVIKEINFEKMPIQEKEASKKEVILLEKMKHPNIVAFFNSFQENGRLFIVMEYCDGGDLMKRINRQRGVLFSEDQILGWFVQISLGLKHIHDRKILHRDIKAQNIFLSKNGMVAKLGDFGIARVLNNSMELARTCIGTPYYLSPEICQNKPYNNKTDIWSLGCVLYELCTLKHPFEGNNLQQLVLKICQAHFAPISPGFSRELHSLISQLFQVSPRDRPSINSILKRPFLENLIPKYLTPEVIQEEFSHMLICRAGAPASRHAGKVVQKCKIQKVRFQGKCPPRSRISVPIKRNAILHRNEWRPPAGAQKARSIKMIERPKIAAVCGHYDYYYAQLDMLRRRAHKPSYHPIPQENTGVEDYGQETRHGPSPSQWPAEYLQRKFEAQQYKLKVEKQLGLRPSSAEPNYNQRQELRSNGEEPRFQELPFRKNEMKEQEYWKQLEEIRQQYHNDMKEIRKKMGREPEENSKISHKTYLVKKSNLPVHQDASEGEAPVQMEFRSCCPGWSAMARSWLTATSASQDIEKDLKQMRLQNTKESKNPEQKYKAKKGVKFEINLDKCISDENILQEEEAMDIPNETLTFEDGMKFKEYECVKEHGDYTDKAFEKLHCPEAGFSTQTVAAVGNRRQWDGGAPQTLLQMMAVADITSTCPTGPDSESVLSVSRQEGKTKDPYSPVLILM

[10] = molecular target: Serine/threonine-protein kinase MRCK beta (Homo sapiens) (UniProt Q9Y5S2); assay: Selectivity interaction (KinomeScan (DiscoverX)) EUB0000618a CDC42BPB; settings: at 10 µM
[11] = molecular target: T3, Scaffold protein ILK (Homo sapiens) (UniProt Q13418); assay: Selectivity interaction (ActivX KiNativ screen (ex vivo kinase selectivity in human PBMCs)) EUB0001619a ILK; format: cell-based; settings: PBMC, at 1 µM
T3 sequence (whole entry): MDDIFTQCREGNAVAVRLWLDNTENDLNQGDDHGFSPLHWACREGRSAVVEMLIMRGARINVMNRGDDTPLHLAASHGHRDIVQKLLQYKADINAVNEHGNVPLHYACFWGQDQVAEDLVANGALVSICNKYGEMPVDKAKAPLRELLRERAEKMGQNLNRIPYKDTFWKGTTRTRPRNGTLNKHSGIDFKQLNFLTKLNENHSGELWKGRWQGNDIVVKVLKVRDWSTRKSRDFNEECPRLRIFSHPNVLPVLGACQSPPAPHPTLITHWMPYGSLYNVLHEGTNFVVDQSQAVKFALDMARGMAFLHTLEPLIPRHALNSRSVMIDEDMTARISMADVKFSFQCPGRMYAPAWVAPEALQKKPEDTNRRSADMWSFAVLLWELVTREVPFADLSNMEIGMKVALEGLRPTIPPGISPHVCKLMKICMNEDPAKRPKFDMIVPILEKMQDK

Calcium/calmodulin-dependent protein kinase type 1G (Homo sapiens), sequence (Q96NX5 whole entry): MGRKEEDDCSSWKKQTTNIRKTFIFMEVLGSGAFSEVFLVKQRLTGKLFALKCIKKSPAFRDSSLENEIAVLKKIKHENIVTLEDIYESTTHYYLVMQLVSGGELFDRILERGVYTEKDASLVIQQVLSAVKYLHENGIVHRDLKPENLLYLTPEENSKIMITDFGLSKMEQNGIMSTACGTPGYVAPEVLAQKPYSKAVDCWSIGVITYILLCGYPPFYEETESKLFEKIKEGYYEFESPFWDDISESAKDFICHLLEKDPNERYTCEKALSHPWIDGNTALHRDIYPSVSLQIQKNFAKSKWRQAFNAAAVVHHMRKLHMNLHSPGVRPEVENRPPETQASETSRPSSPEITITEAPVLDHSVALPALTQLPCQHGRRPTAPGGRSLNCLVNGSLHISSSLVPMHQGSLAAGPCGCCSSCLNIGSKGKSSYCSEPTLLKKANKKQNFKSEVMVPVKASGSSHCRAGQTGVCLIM
Serine/threonine-protein kinase MRCK beta (Homo sapiens), sequence (Q9Y5S2 whole entry): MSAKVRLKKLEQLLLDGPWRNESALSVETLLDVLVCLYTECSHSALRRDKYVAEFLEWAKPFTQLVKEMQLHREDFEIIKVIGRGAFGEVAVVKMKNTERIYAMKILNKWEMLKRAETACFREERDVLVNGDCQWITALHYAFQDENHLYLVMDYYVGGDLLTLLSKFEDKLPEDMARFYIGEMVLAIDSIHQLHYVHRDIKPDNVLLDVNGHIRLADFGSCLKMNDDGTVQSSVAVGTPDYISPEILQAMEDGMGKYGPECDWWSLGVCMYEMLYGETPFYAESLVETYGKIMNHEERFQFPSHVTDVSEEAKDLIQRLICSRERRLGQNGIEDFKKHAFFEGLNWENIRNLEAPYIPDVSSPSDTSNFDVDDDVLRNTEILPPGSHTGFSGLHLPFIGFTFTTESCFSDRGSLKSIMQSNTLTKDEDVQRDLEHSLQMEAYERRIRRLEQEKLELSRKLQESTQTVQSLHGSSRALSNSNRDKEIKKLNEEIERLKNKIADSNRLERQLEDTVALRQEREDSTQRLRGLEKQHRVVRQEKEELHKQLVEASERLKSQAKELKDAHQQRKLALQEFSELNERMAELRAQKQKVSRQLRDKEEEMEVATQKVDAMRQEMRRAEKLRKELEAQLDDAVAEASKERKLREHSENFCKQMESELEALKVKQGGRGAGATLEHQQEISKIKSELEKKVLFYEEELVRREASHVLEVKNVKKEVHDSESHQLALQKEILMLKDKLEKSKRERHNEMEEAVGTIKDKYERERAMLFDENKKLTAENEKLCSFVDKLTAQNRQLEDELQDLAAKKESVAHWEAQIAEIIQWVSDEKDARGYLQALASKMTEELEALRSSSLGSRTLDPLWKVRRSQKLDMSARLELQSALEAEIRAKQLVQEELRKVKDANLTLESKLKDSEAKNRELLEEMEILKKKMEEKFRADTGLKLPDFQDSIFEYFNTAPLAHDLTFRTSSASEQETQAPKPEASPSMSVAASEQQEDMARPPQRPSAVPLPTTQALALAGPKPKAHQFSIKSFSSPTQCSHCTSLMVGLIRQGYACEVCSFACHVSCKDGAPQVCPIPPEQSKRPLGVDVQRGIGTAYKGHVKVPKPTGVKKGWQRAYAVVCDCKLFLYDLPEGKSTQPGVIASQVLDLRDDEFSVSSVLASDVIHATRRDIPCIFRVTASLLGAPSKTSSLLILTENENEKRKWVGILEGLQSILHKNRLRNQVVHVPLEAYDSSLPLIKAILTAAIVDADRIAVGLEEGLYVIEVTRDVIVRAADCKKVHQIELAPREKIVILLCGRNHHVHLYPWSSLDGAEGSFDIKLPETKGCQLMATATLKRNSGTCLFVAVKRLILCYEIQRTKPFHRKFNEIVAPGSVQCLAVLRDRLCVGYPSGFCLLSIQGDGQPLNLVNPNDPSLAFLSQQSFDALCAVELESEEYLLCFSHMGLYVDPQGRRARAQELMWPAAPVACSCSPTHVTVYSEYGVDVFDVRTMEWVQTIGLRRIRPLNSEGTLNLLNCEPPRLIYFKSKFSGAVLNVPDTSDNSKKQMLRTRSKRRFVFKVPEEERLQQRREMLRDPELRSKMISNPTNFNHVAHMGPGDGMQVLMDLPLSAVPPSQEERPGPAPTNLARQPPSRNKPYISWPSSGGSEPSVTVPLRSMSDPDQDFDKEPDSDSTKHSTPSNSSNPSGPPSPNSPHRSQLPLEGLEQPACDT
Fibroblast growth factor receptor 1, sequence (P11362 22-822 limits assumed): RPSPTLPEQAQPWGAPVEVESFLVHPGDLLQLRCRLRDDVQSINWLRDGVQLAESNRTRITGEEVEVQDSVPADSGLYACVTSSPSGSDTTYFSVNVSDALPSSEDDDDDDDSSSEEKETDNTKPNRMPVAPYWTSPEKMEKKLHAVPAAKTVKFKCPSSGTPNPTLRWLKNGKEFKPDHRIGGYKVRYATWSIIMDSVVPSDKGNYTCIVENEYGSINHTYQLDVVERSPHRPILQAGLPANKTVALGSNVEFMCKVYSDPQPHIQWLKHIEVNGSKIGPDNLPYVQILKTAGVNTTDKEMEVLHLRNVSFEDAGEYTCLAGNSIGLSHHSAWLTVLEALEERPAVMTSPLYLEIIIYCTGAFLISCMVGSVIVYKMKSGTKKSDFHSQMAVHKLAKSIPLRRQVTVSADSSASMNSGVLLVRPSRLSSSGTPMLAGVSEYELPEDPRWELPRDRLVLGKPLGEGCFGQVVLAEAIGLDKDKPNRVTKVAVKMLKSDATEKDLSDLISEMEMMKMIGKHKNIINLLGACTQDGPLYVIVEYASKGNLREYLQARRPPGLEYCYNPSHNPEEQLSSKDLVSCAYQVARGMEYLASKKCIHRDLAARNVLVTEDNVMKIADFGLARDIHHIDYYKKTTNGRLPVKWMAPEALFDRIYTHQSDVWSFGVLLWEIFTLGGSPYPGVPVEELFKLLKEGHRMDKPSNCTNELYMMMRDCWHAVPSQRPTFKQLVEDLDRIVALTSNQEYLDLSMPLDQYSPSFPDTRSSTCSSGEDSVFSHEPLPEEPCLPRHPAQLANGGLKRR
Transcription initiation factor TFIID subunit 1 (Homo sapiens), sequence (P21675 whole entry): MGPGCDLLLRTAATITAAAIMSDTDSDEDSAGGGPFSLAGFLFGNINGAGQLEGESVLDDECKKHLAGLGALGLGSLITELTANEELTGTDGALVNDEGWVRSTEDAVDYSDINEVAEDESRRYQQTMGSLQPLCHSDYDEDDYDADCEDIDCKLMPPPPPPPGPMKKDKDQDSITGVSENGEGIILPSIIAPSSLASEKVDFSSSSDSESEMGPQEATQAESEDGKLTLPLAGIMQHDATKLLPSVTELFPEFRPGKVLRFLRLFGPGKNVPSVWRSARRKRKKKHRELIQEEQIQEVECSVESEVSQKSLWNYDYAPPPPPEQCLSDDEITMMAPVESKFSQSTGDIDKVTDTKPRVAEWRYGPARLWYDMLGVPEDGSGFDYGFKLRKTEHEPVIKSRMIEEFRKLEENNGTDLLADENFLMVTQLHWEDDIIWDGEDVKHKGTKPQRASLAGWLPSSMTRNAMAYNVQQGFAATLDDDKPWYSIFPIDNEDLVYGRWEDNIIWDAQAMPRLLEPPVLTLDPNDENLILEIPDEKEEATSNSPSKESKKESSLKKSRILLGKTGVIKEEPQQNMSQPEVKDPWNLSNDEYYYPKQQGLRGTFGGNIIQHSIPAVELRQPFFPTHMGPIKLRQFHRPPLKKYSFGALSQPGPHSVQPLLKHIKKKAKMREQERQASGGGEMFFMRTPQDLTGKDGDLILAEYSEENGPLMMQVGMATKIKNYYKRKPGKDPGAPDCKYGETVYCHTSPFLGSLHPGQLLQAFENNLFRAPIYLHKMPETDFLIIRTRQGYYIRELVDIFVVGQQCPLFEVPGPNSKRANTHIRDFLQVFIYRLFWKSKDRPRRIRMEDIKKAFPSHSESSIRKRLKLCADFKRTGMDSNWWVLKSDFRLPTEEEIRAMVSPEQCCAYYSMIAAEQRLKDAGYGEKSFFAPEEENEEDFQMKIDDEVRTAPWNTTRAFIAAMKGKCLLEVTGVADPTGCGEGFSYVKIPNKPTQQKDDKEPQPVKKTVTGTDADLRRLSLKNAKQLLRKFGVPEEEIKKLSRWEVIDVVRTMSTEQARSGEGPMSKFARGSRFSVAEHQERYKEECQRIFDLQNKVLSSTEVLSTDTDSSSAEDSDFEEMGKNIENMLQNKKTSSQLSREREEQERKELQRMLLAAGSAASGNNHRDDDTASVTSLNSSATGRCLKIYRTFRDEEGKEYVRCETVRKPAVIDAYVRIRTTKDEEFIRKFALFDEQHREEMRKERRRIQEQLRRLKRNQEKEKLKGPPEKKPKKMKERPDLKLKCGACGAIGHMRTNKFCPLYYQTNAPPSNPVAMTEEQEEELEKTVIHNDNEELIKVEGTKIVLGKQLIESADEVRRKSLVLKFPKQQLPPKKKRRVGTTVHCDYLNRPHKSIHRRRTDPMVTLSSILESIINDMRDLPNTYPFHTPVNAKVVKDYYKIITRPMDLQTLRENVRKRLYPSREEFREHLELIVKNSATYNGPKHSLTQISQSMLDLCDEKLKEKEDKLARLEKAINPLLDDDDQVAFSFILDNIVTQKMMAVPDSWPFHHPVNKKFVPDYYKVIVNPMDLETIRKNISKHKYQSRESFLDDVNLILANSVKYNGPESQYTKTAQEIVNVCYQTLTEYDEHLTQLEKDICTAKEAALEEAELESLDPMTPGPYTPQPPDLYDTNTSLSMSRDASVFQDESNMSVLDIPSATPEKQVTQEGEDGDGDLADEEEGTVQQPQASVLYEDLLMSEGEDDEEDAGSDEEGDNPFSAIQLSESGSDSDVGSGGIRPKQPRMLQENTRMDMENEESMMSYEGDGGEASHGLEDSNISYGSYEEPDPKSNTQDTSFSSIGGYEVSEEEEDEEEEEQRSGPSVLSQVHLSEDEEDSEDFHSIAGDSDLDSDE

`CN(C)CCCOc1ccc(-c2cc(NCCCn3cccn3)nc(S(C)(=O)=O)n2)cc1` was tested. Which dTM [1] did it give?
Its dTM is < 2 K.

Which % of control [2] does the source give for `COc1cc(Nc2nc(C)cc(-c3cnn4nc(OC)ccc34)n2)cc(C(F)(F)F)c1` here?
The % of control was 98%.

`CC(C)(O)[C@H](F)CN1Cc2cc(NC(=O)c3cnn4cccnc34)c(N3CCOCC3)cc2C1=O` was tested. Which dTM [3] did it give?
The dTM was 0.3 K.

With `CN(C)CCOc1ccc(-c2nc(-c3ccncc3)c(-c3ccc4c(c3)CC/C4=N\O)[nH]2)cc1` as the molecule, how does the % of control [4] read?
Its % of control is 92%.

For `Nc1cnc(N2CCc3cc(S(=O)(=O)Nc4c(F)cc(Cl)cc4F)cc(N4CCCC4=O)c32)nc1` [TP-020n], which % of control [5] is on record?
Its % of control is 85%.

How did the % of engagement [6] turn out when `C=CC(=O)Nc1ccc(C(=O)Nc2[nH]nc3c2CN(C(=O)N[C@H](CN(C)C)c2ccccc2)C3(C)C)cc1` was run?
Its % of engagement is 3.9%.

For `COc1cc(N(C)c2ccnc3ccc(C(F)(F)F)cc23)cc(OC)c1OC`, which % binding [7] is on record?
The % binding was 59%.

For `CCC(=O)N1CCN(c2ccc(-n3c(=O)ccc4cnc5ccc(-c6cnc7ccccc7c6)cc5c43)cc2C(F)(F)F)CC1`, which % of control [8] is on record?
Its % of control is 74%.

How did the % of control [9] turn out when `Cc1cc([C@@H](C)Nc2ccccc2C(=O)O)c2nc(N3CCOCC3)cc(=O)n2c1` [AZD-6482] was run?
The % of control was 100%.

With `O[C@H]1CC[C@H](Nc2ncc3nc(Nc4c(F)cc(F)cc4F)n([C@H]4CCOC4)c3n2)CC1` as the molecule, how does the % of control [10] read?
The % of control was 100%.

For `N#Cc1cccc(-c2c[nH]c3ncnc(N4CCOCC4)c23)c1`, which % of inhibition [11] is on record?
The % of inhibition was 14%.
